The text below walks through data of US12281149B2, “Modulators of G-protein coupled receptors” (priority 2021, dated 2025).

Common to all, as to assay type: cell-based
The target of test [1] is T1, GLP-1 receptor (Homo sapiens, UniProt P43220). Nature of the test: HitHunter cAMP assay, GLP-1 receptor. The following applies: for EC50: CHO cells stably expressing human GLP-1 receptor, cAMP accumulation, 30 min, read-out: EC50 GLP-1R; for Emax: CHO cells, cAMP, normalized to maximum signal from GLP-1 (high) and DMSO (low), read-out: Emax GLP-1R. Background: cAMP levels reflect the balance of adenylyl cyclase and phosphodiesterase activity.
T1 sequence (P43220 24-463): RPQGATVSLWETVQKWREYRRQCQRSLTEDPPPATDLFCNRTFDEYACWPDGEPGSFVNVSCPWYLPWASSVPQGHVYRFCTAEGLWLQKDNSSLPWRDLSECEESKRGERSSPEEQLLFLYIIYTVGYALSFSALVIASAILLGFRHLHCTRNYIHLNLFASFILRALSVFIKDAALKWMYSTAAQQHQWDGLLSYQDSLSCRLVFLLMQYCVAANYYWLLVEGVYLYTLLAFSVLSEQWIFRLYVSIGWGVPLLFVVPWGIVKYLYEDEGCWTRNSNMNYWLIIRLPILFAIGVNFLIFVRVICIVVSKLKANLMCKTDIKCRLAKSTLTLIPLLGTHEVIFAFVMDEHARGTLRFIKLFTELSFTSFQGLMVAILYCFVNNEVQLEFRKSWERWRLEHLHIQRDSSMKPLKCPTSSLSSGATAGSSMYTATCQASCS

Test [2] has as its target T2, GIP receptor (Homo sapiens, UniProt P48546).
T2 sequence (P48546 22-466): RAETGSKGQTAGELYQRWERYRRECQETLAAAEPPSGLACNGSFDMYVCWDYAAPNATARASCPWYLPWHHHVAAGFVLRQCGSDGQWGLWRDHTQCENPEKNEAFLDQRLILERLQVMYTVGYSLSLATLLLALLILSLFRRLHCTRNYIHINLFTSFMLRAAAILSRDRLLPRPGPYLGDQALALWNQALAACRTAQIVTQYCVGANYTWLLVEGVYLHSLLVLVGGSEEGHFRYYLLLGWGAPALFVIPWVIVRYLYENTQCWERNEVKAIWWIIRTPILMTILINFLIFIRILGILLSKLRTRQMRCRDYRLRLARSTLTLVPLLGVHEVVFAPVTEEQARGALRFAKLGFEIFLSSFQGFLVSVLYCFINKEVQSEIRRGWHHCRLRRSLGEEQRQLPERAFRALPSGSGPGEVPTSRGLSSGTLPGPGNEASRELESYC
Nature of the test: PathHunter β-arrestin assay, GIP receptor. Set-up: host or cells: PathHunter CHO-K1 GIPR β-Arrestin Cell Line. The following applies: β-arrestin-2 recruitment, PathHunter CHO-K1 GIPR β-Arrestin Cell Line, 90 min at 37° C.; normalized to GIP; read-out: GIPR β Arrestin EC50. In general terms: Arrestin recruitment assays detect the binding of arrestin to an activated receptor.

For test [3], the target named is T1, GLP-1 receptor. Nature of the test: PathHunter β-arrestin assay, GLP-1 receptor. Also noted: host or cells: PathHunter CHO-K1 GLP1R β-Arrestin Cell Line. Particulars: β-arrestin-2 recruitment, PathHunter CHO-K1 GLP1R β-Arrestin Cell Line, 90 min at 37° C.; normalized to GLP-1; read-out: GLP-1R β Arrestin EC50.
In test [4] the target is T2, GIP receptor. Nature of the test: HitHunter cAMP assay, GIP receptor. Particulars: for EC50: CHO cells stably expressing GIP receptor, cAMP accumulation, 30 min, read-out: EC50 GIP-1R; for Emax: CHO cells, cAMP, normalized to maximum signal from GIP (high) and DMSO (low), read-out: Emax GIP-1R.

A word on the EC50: it is the concentration giving half of the maximal effect. One may read the Emax as the greatest response seen or fitted, relative to the assay's reference.

Each structure is given as a SMILES string. *1 amine or outer side, *2 acyl side, *3 side chain or, on linkers, in order; H or OH if unused. Where a SMILES comes first, the peptide text is derived from it. Side-chain parts run from the residue outwards. [ ]: non-standard residue; d: D form. The star is where a group is joined. Isobutyryl(2-(3-CN-5-F-Ph)) = CC(C)(C(=O)*)c1cc(F)cc(C#N)c1; C20 diacid = O=C(O)CCCCCCCCCCCCCCCCCCC(=O)*; αMePhe(2-F) = C[C@](N)(Cc1ccccc1F)C(=O)O; γGlu = O=C(O)[C@H](CCC(=O)[*:2])N[*:1]; NH(4-F-phenyl) = Fc1ccc(N*)cc1; X60 = O=C(C1(c2cccnc2)CCCC1)*; AEEA = NCCOCCOCC(=O)O; Aib = CC(C)(N)C(=O)O; CO = O=C([*:1])[*:2]; GABA = NCCCC(=O)O; βAla = NCCC(=O)O Some results are limits rather than exact numbers.

For `CC[C@H](C)[C@H](NC(=O)[C@H](CC(C)C)NC(=O)[C@H](Cc1c[nH]c2ccccc12)NC(=O)[C@H](CC(N)=O)NC(=O)[C@@H](NC(=O)[C@H](Cc1ccccc1)NC(=O)[C@H](C)NC(=O)[C@H](CCCCNC(=O)COCCOCCNC(=O)COCCOCCNC(=O)CC[C@H](NC(=O)CCCCCCCCCCCCCCCCCCC(=O)O)C(=O)O)NC(=O)[C@H](CCC(N)=O)NC(=O)[C@H](C)NC(=O)[C@@H](NC(=O)[C@H](CCCCN)NC(=O)[C@H](CC(=O)O)NC(=O)[C@H](CC(C)C)NC(=O)C(C)(C)NC(=O)[C@@H](NC(=O)[C@H](CO)NC(=O)[C@H](Cc1ccc(O)cc1)NC(=O)[C@H](CC(=O)O)NC(=O)[C@H](CO)NC(=O)[C@@H](NC(=O)[C@H](Cc1ccccc1)NC(=O)[C@@H](NC(=O)CNC(=O)[C@H](CCC(=O)O)NC(=O)CCNC(=O)C(C)(C)c1cc(F)cc(C#N)c1)[C@@H](C)O)[C@@H](C)O)[C@@H](C)CC)[C@@H](C)CC)C(C)C)C(=O)N[C@@H](C)C(=O)NCC(=O)NCC(=O)N1CCC[C@H]1C(=O)N[C@@H](CO)C(=O)N[C@@H](CO)C(=O)NCC(=O)N[C@@H](C)C(=O)N1CCC[C@H]1C(=O)N1CCC[C@H]1C(=O)N1CCC[C@H]1C(=O)N[C@@H](CO)C(N)=O` [Compound 182] ({Isobutyryl(2-(3-CN-5-F-Ph))-βAla}-EGTFTSDYSI[Aib]LDKIAQK([AEEA-AEEA-γGlu-C20 diacid])AFVNWLIAGGPSSGAPPPS-NH2), the EC50 in test [1] is 0.1 to 1 nM; in test [2] it was less than 1000 nM; in test [3], greater than 1000 nM; in test [4], 10 to 100 nM. The figures for the maximal effect (Emax) in test [1] and in test [4] were 96% and 98%, respectively.
Regarding `CC[C@H](C)[C@H](NC(=O)[C@H](CC(C)C)NC(=O)[C@H](Cc1c[nH]c2ccccc12)NC(=O)[C@H](CCC(N)=O)NC(=O)[C@@H](NC(=O)[C@H](Cc1ccccc1)NC(=O)[C@H](C)NC(=O)[C@H](CCCCNC(=O)COCCOCCNC(=O)COCCOCCNC(=O)CC[C@H](NC(=O)CCCCCCCCCCCCCCCCCCC(=O)O)C(=O)O)NC(=O)[C@H](CCC(N)=O)NC(=O)[C@H](C)NC(=O)[C@@H](NC(=O)[C@H](CCCCN)NC(=O)[C@H](CC(=O)O)NC(=O)[C@H](CC(C)C)NC(=O)C(C)(C)NC(=O)[C@@H](NC(=O)[C@H](CO)NC(=O)[C@H](Cc1ccc(O)cc1)NC(=O)[C@H](CC(=O)O)NC(=O)[C@H](CO)NC(=O)[C@@H](NC(=O)[C@](C)(Cc1ccccc1F)NC(=O)[C@@H](NC(=O)CNC(=O)[C@H](CCC(=O)O)NC(=O)CCNC(=O)C1(c2cccnc2)CCCC1)[C@@H](C)O)[C@@H](C)O)[C@@H](C)CC)[C@@H](C)CC)C(C)C)C(=O)N[C@@H](C)C(=O)NCC(=O)NCC(=O)N1CCC[C@H]1C(=O)N[C@@H](CO)C(=O)N[C@@H](CO)C(=O)NCC(=O)N[C@@H](C)C(=O)N1CCC[C@H]1C(=O)N1CCC[C@H]1C(=O)N1CCC[C@H]1C(=O)N[C@@H](CO)C(N)=O` [Compound 246] ({X60-βAla}-EGT[αMePhe(2-F)]TSDYSI[Aib]LDKIAQK([AEEA-AEEA-γGlu-C20 diacid])AFVQWLIAGGPSSGAPPPS-NH2), the EC50 in test [1] is 0.1 to 1 nM; in test [2], less than 1000 nM; in test [3] it was less than 1000 nM; in test [4] it was 0.1 to 1 nM. In addition, the values for the maximal response (Emax) in test [1] and in test [4] were 130% and 100%, respectively.
On to `CC[C@H](C)[C@H](NC(=O)[C@H](CC(C)C)NC(=O)[C@H](Cc1c[nH]c2ccccc12)NC(=O)[C@H](CCC(N)=O)NC(=O)[C@@H](NC(=O)[C@H](Cc1ccccc1)NC(=O)[C@H](C)NC(=O)[C@H](CCCCNC(=O)COCCOCCNC(=O)COCCOCCNC(=O)CC[C@H](NC(=O)CCCCCCCCCCCCCCCCCCC(=O)O)C(=O)O)NC(=O)[C@H](CCC(N)=O)NC(=O)[C@H](C)NC(=O)[C@@H](NC(=O)[C@H](CCCCN)NC(=O)[C@H](CC(=O)O)NC(=O)[C@H](CC(C)C)NC(=O)C(C)(C)NC(=O)[C@@H](NC(=O)[C@H](CO)NC(=O)[C@H](Cc1ccc(O)cc1)NC(=O)[C@H](CC(=O)O)NC(=O)[C@H](CO)NC(=O)[C@@H](NC(=O)[C@H](Cc1ccccc1)NC(=O)[C@@H](NC(=O)CNC(=O)[C@H](CCC(=O)O)NC(=O)CCCNC(=O)CNC(=O)Nc1ccc(F)cc1)[C@@H](C)O)[C@@H](C)O)[C@@H](C)CC)[C@@H](C)CC)C(C)C)C(=O)N[C@@H](C)C(=O)NCC(=O)NCC(=O)N1CCC[C@H]1C(=O)N[C@@H](CO)C(=O)N[C@@H](CO)C(=O)NCC(=O)N[C@@H](C)C(=O)N1CCC[C@H]1C(=O)N1CCC[C@H]1C(=O)N1CCC[C@H]1C(=O)N[C@@H](CO)C(N)=O` [Compound 268] ({NH(4-F-phenyl)-CO}-G[GABA]EGTFTSDYSI[Aib]LDKIAQK([AEEA-AEEA-γGlu-C20 diacid])AFVQWLIAGGPSSGAPPPS-NH2), for which the EC50 in test [1] is 1 to 10 nM; in test [2] it was greater than 1000 nM; in test [3], greater than 1000 nM; in test [4], 1 to 10 nM. In addition, the Emax in test [1] is 95%; in test [4], 103%.
On to `CC[C@H](C)[C@H](NC(=O)[C@H](CO)NC(=O)[C@H](Cc1ccc(O)cc1)NC(=O)[C@H](CC(=O)O)NC(=O)[C@H](CO)NC(=O)[C@@H](NC(=O)[C@H](Cc1ccccc1)NC(=O)[C@@H](NC(=O)CNC(=O)[C@H](CCC(=O)O)NC(=O)CCNC(=O)[C@@]1(c2ccccc2)CNC(=O)C1)[C@@H](C)O)[C@@H](C)O)C(=O)N[C@@H](Cc1ccc(O)cc1)C(=O)N[C@@H](CC(C)C)C(=O)N[C@@H](CC(=O)O)C(=O)N[C@@H](CCCCN)C(=O)N[C@@H](CCC(N)=O)C(=O)N[C@@H](C)C(=O)N[C@@H](C)C(=O)N[C@@H](CCCCNC(=O)COCCOCCNC(=O)COCCOCCNC(=O)CC[C@H](NC(=O)CCCCCCCCCCCCCCCCCCC(=O)O)C(=O)O)C(=O)N[C@@H](CCC(=O)O)C(=O)N[C@@H](Cc1ccccc1)C(=O)N[C@H](C(=O)N[C@@H](CC(N)=O)C(=O)N[C@@H](Cc1c[nH]c2ccccc12)C(=O)N[C@@H](CC(C)C)C(=O)N[C@@H](CC(C)C)C(=O)N[C@@H](C)C(=O)NCC(=O)NCC(=O)N1CCC[C@H]1C(=O)N[C@@H](CO)C(=O)N[C@@H](CO)C(=O)NCC(=O)N[C@@H](C)C(=O)N1CCC[C@H]1C(=O)N1CCC[C@H]1C(=O)N1CCC[C@H]1C(=O)N[C@@H](CO)C(N)=O)C(C)C` (single isomer, unassigned) [Compound 124], for which the EC50 was 10 to 100 nM in test [1], greater than 1000 nM in test [2], greater than 1000 nM in test [3] and 10 to 100 nM in test [4]. Also, the maximal response (Emax) stood at 97% in test [1] and 102% in test [4].
